Source: patent publication US20200325449A1, “COMPLEMENT INHIBITION FOR IMPROVING CELL VIABILITY” (THE CLEVELAND CLINIC FOUNDATION, priority 2016, published 2020)
Entries after “also recorded” stand apart in the source; their conditions may differ.

What was measured:
[1] = tested on: MSCs; experiment: In vitro damage of MSCs (BCECF release) after contact with serum; assay type: cell-based; settings: MSCs cultured with Neu5AC (lower Neu5GC levels) vs without; 20% or 30% normal human serum
Experimental: Measurement of in vitro damage of MSCs. An established fluorescence dye release assay was used to assess MSC injury after contact with serum. In brief, 2×10^5 heparin-painted or mock-painted MSCs were first loaded by incubation for 30 min at 37° C. with 5 μM 2′,7′-bis-(2-carboxyethyl)-5-(and-6)-carboxyfluorescein acetoxymethyl ester (BCECF-AM) (Thermo Fisher Scientific™, Grand Island, N.Y.). After 3 washes, the BCECF-loaded MSCs were incubated for 30 min at 37° C. with 20 or 30% normal human serum in 100 μL of GVB++, then the cells were removed by centrifugation and released BCECF in the supernatant measured on a SpectraMax Gemini XS (Molecular Devices, Sunnyvale, Calif.) with excitation and emission wavelengths, respectively, of 485 nm and 538 nm. The MSC damage (percentage of BCECF release) was calculated as ([A−B]/[C−B])×100%, where A represents the mean experimental BCECF release, B the mean spontaneous BCECF release, and C the mean maximum BCECF release induced by incubating the cells with 0.1% Triton-X100.

[2] = tested on: Neu5GC on MSCs; experiment: Neu5GC detection on MSCs; assay type: cell-based, human; settings: MSCs cultured 7 days with Neu5AC in complete medium vs without
Experimental: Neu5GC detection on MSCs. This was performed as described previously by Ghaderi et al. In brief, after blocking with a 0.5% solution of fish skin gelatin (Sigma-Aldrich, St. Louis, Mo.), MSCs were incubated for 30 min on ice with 5 μg/ml of chicken anti-Neu5GC IgY or control IgY, then were washed, stained with 5 μg/ml of fluorescein isothiocyanate (FITC)-labeled anti-IgY antibody (Jackson ImmunoResearch Laboratories, West Grove, Pa.), and analyzed on a flow cytometer (BD FACSCalibur, San Jose, Calif.).

[3] = tested on: human IgGs and IgMs on MSCs; experiment: MSC serum immunoglobulin binding assay; assay type: cell-based; settings: MSCs cultured with Neu5AC, then pooled normal human serum
Experimental: MSC serum immunoglobulin binding assay. MSCs (0.5×10^6) cultured in the presence or absence of 3 mM of Neu5AC for a week were incubated for 30 min on ice with 30% pooled normal human serum in PBS. After washing, the cells were stained for cell surface-bound human IgGs and IgMs with 2 μg/ml of anti-human IgG or anti-human IgM antibodies (Jackson ImmunoResearch Laboratories, West Grove, Pa.) and examined by flow cytometry.

[4] = target: T1, C3aR on neutrophils (Homo sapiens, UniProt Q16581); experiment: Neutrophil- and NHS-mediated MSC damage assay with C3aR antagonist; assay type: cell-based; settings: HL60-derived neutrophils plus 30% NHS; antagonist alone, 10 μM
T1 construct: endogenous in cells; host or cells: human neutrophils from donor blood or differentiated from HL-60 cells
T1 sequence (Q16581 1-482): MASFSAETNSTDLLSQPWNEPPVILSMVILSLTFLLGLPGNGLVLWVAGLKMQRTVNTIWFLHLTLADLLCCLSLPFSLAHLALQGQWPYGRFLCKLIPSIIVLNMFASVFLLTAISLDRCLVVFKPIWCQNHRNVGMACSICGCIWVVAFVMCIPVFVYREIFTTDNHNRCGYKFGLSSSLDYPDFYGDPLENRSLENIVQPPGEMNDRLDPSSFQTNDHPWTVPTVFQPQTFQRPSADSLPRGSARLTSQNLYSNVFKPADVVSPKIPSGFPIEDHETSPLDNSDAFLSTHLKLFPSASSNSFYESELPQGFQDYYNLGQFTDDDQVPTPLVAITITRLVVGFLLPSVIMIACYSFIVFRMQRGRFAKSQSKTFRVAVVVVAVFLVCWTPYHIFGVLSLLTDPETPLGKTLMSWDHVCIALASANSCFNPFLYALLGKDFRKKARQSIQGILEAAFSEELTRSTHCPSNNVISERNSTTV
Experimental: Neutrophil-mediated MSC damage assay. Human neutrophils, either purified from healthy donor peripheral blood mononuclear cells (PBMCs) by Ficoll centrifugation (provided by the Hematopoietic Stem Cells Core Facility at Case Western Reserve University) or differentiated from the neutrophil progenitor cell line HL-60 (ATCC), were used. Collins et al., Proc Natl Acad Sci USA. 1978; 75:2458-62. In some experiments, neutrophil-mediated MSC damage was assessed using a similar BCECF-based assay to that already described. In brief, 2×10^4 MSCs were labeled with BCECF-AM as described above, then, after washing, the labeled MSC were incubated for 30 min at 37° C. with different numbers of neutrophils in the presence or absence of 30% NHS in 100 μl of GVB++ buffer with various concentrations of the neutrophil function inhibitor wortmannin that inhibits oxidative burst (Sue-A-Quan et al., Journal of cellular physiology. 1997; 172:94-108) (Cayman Chemical, Ann Arbor, Mich.) and released BCECF in the supernatants was measured as described. The percentage BCECF release (cell injury) was calculated as above. […]

[5] = tested on: complement classical pathway; experiment: Complement classical pathway activation ex vivo assay (EshA C3b deposition); assay type: in vivo; settings: plasma of WT C57BL/6 mice 30 min after s.c. heparin 20 U/mouse vs saline
Experimental: (§1) Complement alternative pathway and classical pathway activation ex vivo assays. Mice were injected subcutaneously (s.c.) with 20 U of heparin (MP Biomedicals, Solon, Ohio) in saline or saline alone, then blood samples were collected 30 min later and immediately centrifuged for 5 min at 4° C. to collect the plasma. The activity of the complement alternative pathway was assessed using a zymosan C3b deposition assay and complement classical pathway activity was measured using an antibody-sensitized sheep erythrocytes (EshA) C3b deposition assay.

[6] = tested on: complement alternative pathway; experiment: Complement alternative pathway activation ex vivo assay (zymosan C3b deposition); assay type: in vivo; settings: plasma of WT C57BL/6 mice 30 min after s.c. heparin 20 U/mouse vs saline
Experimental: as §1

[7] = tested on: MSCs; experiment: In vivo damage of MSCs (BCECF release in plasma); parameters: species or system mice; settings: BCECF-labeled MSCs infused via tail vein 10 min after s.c. heparin vs saline
Experimental: Measurement of in vivo damage of MSCs. In vivo MSC damage after infusion was also examined using a BCECF release assay. In brief, each mouse was injected subcutaneously with 500 U of heparin in saline or saline alone, then 1×10^6 MSCs labeled with BCECF were injected by the tail vein, then blood samples were collected after 0, 20, 40, and 60 min and released BCECF in the plasma measured on a SpectraMax Gemini XS (Molecular Devices, Sunnyvale, Calif.) as above.
To evaluate in vivo damage to MSCs with or without heparin painting, 0.5×10^6 heparin-painted or mock-painted MSCs were labeled with BCECF, then injected into the tail vein and blood sample collected and the plasma assayed for levels of released BCECF as above.

[8] = tested on: primary neutrophils; experiment: Primary neutrophil-mediated MSC damage with purified C5a; assay type: cell-based; settings: purified human C5a 50 ng/ml, no NHS, 4 h
Experimental: Neutrophil-mediated MSC damage assay. Human neutrophils, either purified from healthy donor peripheral blood mononuclear cells (PBMCs) by Ficoll centrifugation (provided by the Hematopoietic Stem Cells Core Facility at Case Western Reserve University) or differentiated from the neutrophil progenitor cell line HL-60 (ATCC), were used. Collins et al., Proc Natl Acad Sci USA. 1978; 75:2458-62. In some experiments, neutrophil-mediated MSC damage was assessed using a similar BCECF-based assay to that already described. In brief, 2×10^4 MSCs were labeled with BCECF-AM as described above, then, after washing, […] neutrophils in the presence or absence of 30% NHS in 100 μl of GVB++ buffer with various concentrations of the neutrophil function inhibitor wortmannin that inhibits oxidative burst (Sue-A-Quan et al., Journal of cellular physiology. 1997; 172:94-108) (Cayman Chemical, Ann Arbor, Mich.) and released BCECF in the supernatants was measured as described. The percentage BCECF release (cell injury) was calculated as above. In some experiments, a C5aR antagonist (JPE1375, Calbiochem, Billerica, Mass.)[27] or a C3aR antagonist (SB 290157, Calbiochem, Billerica, Mass.)[28] were added, both at […], to assess the role of C3aR and C5aR on neutrophils, while, in other experiments, NHS was omitted and 50 ng/ml of purified C5a (Complement technology Inc, Tyler, Tex.) added instead.

[9] = tested on: neutrophils; settings: Ehrengruber et al. 1994; cited from earlier work

In the case of `CC(=O)N[C@H]1[C@H]([C@H](O)[C@H](O)CO)OC(O)(C(=O)O)C[C@@H]1O` (stereo partly drawn) [Neu5AC, N-acetylneuraminic acid], the “complement-mediated MSC injury” value [1] is reported as “less complement-mediated injury; also recorded: moderate reduction”, the “Neu5GC levels on the MSC surface” value [2] is reported as “significantly reduced” and the “amount of bound IgM and IgG on MSCs” value [3] is reported as “decrease”.

With `NC(N)=NCCC[C@H](NC(=O)COCC(c1ccccc1)c1ccccc1)C(=O)O` [C3aR antagonist] the “neutrophil-mediated MSC damage (BCECF release)” value [4] was “no appreciable effect”.

For heparin, the “C3 deposition on the surface of EshA (classical pathway)” value [5] was “markedly reduced”, the “C3 deposition on the surface of zymosan (alternative pathway)” value [6] was “markedly reduced” and the “in vivo MSC cell damage (released BCECF in the plasma)” value [7] was “protected”.

B1: C5a: purified human C5a, anaphylatoxin (Complement technology Inc) (protein, UniProt P01031 678-751, looked up)
C5a anaphylatoxin: TLQKKIEEIAAKYKHSVVKKCCYDGACVNNDETCEQRAARISLGPRCIKAFTECCVVASQLRANISHKDMQLGR
modifications: C5a anaphylatoxin
In the case of B1, the “MSC damage by primary neutrophils” value [8] is given as “significant MSC damage” and the “potency in activating neutrophils relative to C3a” value [9] is given as 50-100 times.
